Experimental findings from patent US5830863A, “Neurokinin A antagonists” (priority 1996, dated 1998) are described below.

Residues, ends and D or L forms follow the SMILES beside them.

In assay [1] the target is T1, neurokinin A (NKA) receptor (NK-2) (Mesocricetus auratus, UniProt P51144).
T1 construct: displace I125 labeled NKA from hamster urinary bladder; from tissue; host or cells: hamster urinary bladder (membranes in A1, chopped tissue in A4)
T1 sequence (P51144 1-384): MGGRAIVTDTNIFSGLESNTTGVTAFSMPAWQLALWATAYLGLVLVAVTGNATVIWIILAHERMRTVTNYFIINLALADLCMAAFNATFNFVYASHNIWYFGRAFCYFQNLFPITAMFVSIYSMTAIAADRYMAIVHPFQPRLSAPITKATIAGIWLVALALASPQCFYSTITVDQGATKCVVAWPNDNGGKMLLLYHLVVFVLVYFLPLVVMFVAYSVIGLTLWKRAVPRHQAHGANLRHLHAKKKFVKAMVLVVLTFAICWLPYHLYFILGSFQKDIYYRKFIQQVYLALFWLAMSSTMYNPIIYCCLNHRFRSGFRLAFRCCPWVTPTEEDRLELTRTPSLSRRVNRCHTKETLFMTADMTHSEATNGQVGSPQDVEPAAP
Put plainly: displacement of I125 labeled NKA from hamster urinary bladder membranes. The assay is classed as binding. The source says:
The abscissa (x-axis) logarithmically indicates the concentration in nanomoles of agonist of antagonist of the neurokinin A (NKA) receptor. The ordinate (Y-axis) indicates the observed specific binding for each tested agonist or antagonist measured as a percentage of maximum specific binding.
Agonists tested were NKA and fragments of NKA consisting of the third to tenth (NKA(3-10)) amino acids and the fourth to tenth (NKA(4-10)) amino acids. Values are MEAN±S.E.M. of 6-12 experiments. IC50 values estimated graphically from 50% inhibition point.
Urinary bladders from several hamsters were pooled, minced, and homogenized in 50 mM TRIS-HCl (pH 7.4) containing 120 mM NaCl and 5 mM KCl at 4° C. and centrifuged at 48,000×g for 15 minutes. The pellet was resuspended for 30 minutes in 50 mM TRIS-HCl (pH 7.4) containing 10 mM EDTA and 300 mM KCl at 4° C. The suspension was centrifuged as above and the pellet was washed two times in plain 50 mM TRIS-HCl (pH 7.4) and centrifuged similarly. The tissue was then resuspended in incubation buffer and an aliquot (approximately 3-5 mg tissue) was added to each assay tube to commence the assay. The assay tubes contained incubation buffer consisting of 50 mM TRIS-HCl (pH 7.4), 0.02% BSA, 40 μg/ml bacitracin, 4 μg/ml chymostatin, 4 μg/ml leupeptin, 2 mM MnCl2, 0.1 nM ^125 iodohistidyl^1 -neurokinin A (Amersham Corp.), and concentrations of the title compounds or standards ranging from 0.03 nM to 100 μM. The assay was allowed to proceed to equilibrium for 120 min at room temperature. After this time, the contents of each tube was rapidly filtered over Whatman GF/B filters presoaked in 0.5% BSA and the filters were rapidly washed two times with ice-cold plain 50 mM TRIS-HCl (pH 7.4). Filter-bound radioactivity was quantitated in a gamma counter. Specific binding (maximum) was defined as the difference between binding in the presence and absence of 1 μM unlabeled neurokinin A. Competition of iodinated neurokinin A binding by test compounds or standards was expressed as a percentage of this maximum competition.
Values given indicate the concentration in nanomoles of antagonist to reach the IC50 of the neurokinin A (NKA) receptor. SKLKB82#3 represents a cloned NK-2 receptor cell line; the sample is prepared from the scraped cell pellet for assay as earlier described for the hamster urinary bladder preparations. NK-1 represents a substance P receptor preparation from rat salivary gland; receptors are prepared as earlier described for the hamster urinary bladder preparations. Blank spaces indicate compound has not been tested in that particular assay.

Another assay addresses T2, NKA receptor (Mesocricetus auratus, UniProt P51144).
T2 construct: displace I125 labeled NKA from hamster urinary bladder; from tissue; host or cells: hamster urinary bladder (membranes in A1, chopped tissue in A4)
T2 sequence (P51144 1-384): T1 sequence (P51144 1-384)
Put plainly: phosphatidylinositol (PI) turnover in hamster urinary bladder. The conditions noted are these: test compound alone; ID#3 up to 100 μM. The assay is classed as cell-based. As for the experimental part:
The abscissa (x-axis) logarithmically indicates the concentration in nanomolar (nM) of agonist or antagonist of the NKA receptor. The ordinate (y-axis) indicates the observed PI turnover as a percentage of control. […] The ordinate (y-axis) indicates the observed PI turnover as a percentage of control. […] Urinary bladders from several hamsters were pooled and chopped at 350 μm with a tissue chopper. The chopped tissue was then incubated in 37° C. Krebs-Hepes buffer with fresh buffer changes every 15 minutes for 30 minutes. The tissue was then incubated in this buffer containing 100-200 μCi of ^3 H-inositol at 37° C. […] Test compound was also evaluated alone at the indicated concentrations to test for agonist activity. […] 50 μl of the bottom phase (chloroform) was withdrawn from each tube and placed in a counting vial, dried, and counted in scintillation fluid. The material on the columns was washed in order with: 1) 10 ml of water 2) 5 ml of 5 mM disodium tetraborate/60 mM sodium formate 3) 10 ml of 1M ammonium formate in 0.1M formic acid The final (third) wash was collected and one ml was mixed with 6 ml of ACS scintillant and counted. The ratio of these counts (total inositol phosphates) to the corresponding organic phase counts was then calculated for each sample. […]

The compound `CC(C)C[C@@H](CN(C)[C@@H](CC(C)C)C(N)=O)NC(=O)CNC(=O)[C@@H](NC(=O)[C@H](Cc1ccccc1)NC(=O)[C@H](CO)NC(=O)[C@@H](N)CC(=O)O)C(C)C` [MDL 29,916, H-Asp-Ser-Phe-Val-Gly-Leu.PSI.(CH2 NCH3)Leu-NH2] (HELM PEPTIDE1{D.S.F.V.G.[CC(C)C[C@@H](CN(C)[C@@H](CC(C)C)C(N)=O)N[*:1]]}$$$$V2.0) displayed an IC50 in assay [1] of 210 ± 15 nM. Also, at NKA receptor, the “partial agonist activity (PI turnover)” value was determined as 5%.

Consider `CC(C)C[C@@H](CN[C@@H](CC(C)C)C(N)=O)NC(=O)CNC(=O)[C@@H](NC(=O)[C@H](Cc1ccccc1)NC(=O)[C@H](CO)NC(=O)[C@@H](N)CC(=O)O)C(C)C` [MDL 28,564, H-Asp-Ser-Phe-Val-Gly-Leu.PSI.(CH2 NH)Leu-NH2] (HELM PEPTIDE1{D.S.F.V.G.[CC(C)C[C@@H](CN[C@@H](CC(C)C)C(N)=O)N[*:1]]}$$$$V2.0), for which, in assay [1], the IC50 turned out to be 157 ± 17 nM. For the same compound, at NKA receptor, the “partial agonist activity (PI turnover)” value was determined as 12%.
